These are literature values, as cited in patent US20200163955A1, “STERILE COMPOSITIONS OF INDACATEROL SUITABLE FOR NEBULIZATION” (GLENMARK SPECIALTY S.A., priority 2018, published 2020).

For this data set the following is noted: water.

With `CCc1cc2c(cc1CC)CC(NC[C@H](O)c1ccc(O)c3[nH]c(=O)ccc13)C2` [Indacaterol, 5-[(1R)-2-[(5,6-diethyl-2,3-dihydro-1H-inden-2-yl)amino]-1-hydroxyethyl]-8-hydroxy-1H-quinolin-2-one], the aqueous solubility entry was “very slightly soluble in water”.
